We go through 24 molecules from EP4813977A1, “NOVEL COMPOUND AND USE THEREOF” (Protier Biotech Inc., priority 2023, dated 2025).

In one experiment the target is T1, Cereblon (CRBN) protein (Homo sapiens, UniProt Q96SW2).
T1 construct: purchased Eurofins (E3scan service); host or cells: HEK-293
Put plainly: CRBN binding affinity, E3scan (Eurofins) competition binding with qPCR read-out. To be noted: lower % Ctrl = stronger binding, DMSO = 100 % Ctrl, lenalidomide = 0 % Ctrl. As for the experimental part:
Specifically, CRBN was produced using a HEK-293 cell line and labeled with DNA for qPCR detection. Streptavidin-coated magnetic beads were treated with a biotinylated small-molecule ligand at room temperature for 30 minutes to generate an affinity resin for E3scan analysis. The liganded beads were blocked with excess biotin and washed with a blocking buffer (SeaBlock (Pierce), 1 % BSA, 0.05 % Tween 20, 1 mM DTT) to remove unbound ligands and prevent non-specific binding. […] The test compound was prepared as a 100× stock in 100 % DMSO and diluted directly into the assay solution. All reactions were performed in a polypropylene 384-well plate with a final reaction volume of 0.02 mL. […] The CRBN concentration in the eluate was measured by qPCR. […] A lower '% Ctrl' indicates a stronger binding affinity. […] ((test compound signal−positive control signal)/(negative control signal−positive control signal)) × 100 [formula]

Experiment [1] has as its system human multiple myeloma cell line MM.1S. Kind of experiment: Cell viability assay (Cell Counting Kit-8), MM.1S. The format is cell-based. To be noted: MM1.S, 72 hours, CCK-8, absorbance 450 nm. As for the experimental part:
(§1) To evaluate the cytotoxicity of the compounds synthesized in the Preparation Examples against cancer cells, a cell viability assay following treatment with the synthesized compounds was performed using a T-cell leukemia cell line Jurkat (KCLB, Cat# 40152), a human acute monocytic leukemia cell line MV-4-11 (ATCC, Cat# CRL-9591), and a human multiple myeloma cell line MM.1S (ATCC, Cat# CRL-2974).
(§2) As a culture medium for the cell lines, an RPMI medium containing 10 % heat-inactivated FBS and 1 % penicillin/streptomycin (P/S) antibiotics was used. The culture medium was stored refrigerated and warmed in a 37 °C water bath before use. Each cell line was used for the test after a stabilization period of at least 2 weeks after thawing, and cell culture was performed based on information provided by the cell line manufacturer regarding the thawing and subculture conditions.
(§3) The Jurkat, MV-4-11, or MM.1S cell line was seeded in a 96-well plate at a density of 1 × 10^4 cells/well and incubated in a 37 °C CO2 incubator overnight. After incubation, a prepared test compound was applied to each cell line, and the cells were incubated in a 37 °C CO2 incubator for 72 hours. After 72 hours of incubation, a Cell Counting Kit-8 (Dojindo, Cat# CK04-20) reagent was added, and the cells were incubated in a 37 °C CO2 incubator. Then, the absorbance was measured at 450 nm using a SpectraMax M3 Microplate Reader (N=2, duplicate measurement). The evaluation concentrations for evaluating the cytotoxicity of the compounds were 10 points: 100 µM, 20 µM, 4 µM, 0.8 µM, 0.16 µM, 0.032 µM, 0.0064 µM, 0.00128 µM, 0.000256 µM, and 0 µM, and the test was performed at 2 wells/concentration point (n=2). A GI50 was derived using a GraphPad Prism program.
For orientation: Tetrazolium assays rely on reduction of a dye to a coloured formazan, in cell work by metabolically active cells.

For experiment [2], the system named is T-cell leukemia cell line Jurkat. Kind of experiment: Cell viability assay (Cell Counting Kit-8), Jurkat. Format: cell-based. Particulars: Homo sapiens, 72 hours, CCK-8, absorbance 450 nm. As for the experimental part:
as §1, §2, §3

For `O=C1CCC(N2Cc3cc(C(=O)c4cn(-c5ccccc5)c5ccc(-c6ccccc6)cc45)ccc3C2=O)C(=O)N1` (centres unmarked) [Compound 25, 3-(5-(1,5-diphenyl-1H-indole-3-carbonyl)-1-oxoisoindolin-2-yl)piperidine-2,6-dione], the “CRBN binding affinity (% Ctrl @ 5µM)” value at Cereblon (CRBN) protein is listed as “D (10 ≤ '% Ctrl' < 35)”.
The GI50 is the concentration at which growth is held to half of that of the control. Read a low GI50 as greater sensitivity of the cells. For `O=C1CCC(N2Cc3cc(C(=O)c4ccc(Br)cc4)ccc3C2=O)C(=O)N1` (centres unmarked) [Compound 49, 3-(5-(4-bromobenzoyl)-1-oxeisoindolin-2-yl)piperidine-2,6-dione], the GI50 in experiment [1] is 1000 to 10000 nM; in experiment [2], not above 100 nM.
With `O=C1CCC(N2Cc3cc(C(=O)c4ccc5ccccc5n4)ccc3C2=O)C(=O)N1` (centres unmarked) [Compound 70, 3-(1-oxo-5-(quinoline-2-carbonyl)isoindolin-2-yl)piperidine-2,6-dione], the GI50 was more than 10000 nM in experiment [1] and 1000 to 10000 nM in experiment [2].
Turning to `O=C1CCC(N2Cc3cc(C(=O)c4c[nH]c5ccc(-c6ccccc6)cc45)ccc3C2=O)C(=O)N1` (centres unmarked) [Compound 24, 3-(1-oxo-5-(5-phenyl-1H-indole-3-carbonyl)isoindolin-2-yl)piperidine-2,6-dione], the “CRBN binding affinity (% Ctrl @ 5µM)” value at Cereblon (CRBN) protein was “D (10 ≤ '% Ctrl' < 35)”.
As to `O=C1CCC(N2C(=O)c3ccc(C(=O)c4cc5ccccc5[nH]4)cc3C2=O)C(=O)N1` (centres unmarked) [Compound 10, 2-(2,6-dioxopiperidin-3-yl)-5-(1H-indole-2-carbonyl)isoindoline-1,3-dione], on Cereblon (CRBN) protein, the “CRBN binding affinity (% Ctrl @ 5µM)” value is “C (1 ≤ % Ctrl' < 10)”. The same molecule had a GI50 in experiment [2] of 1000 to 10000 nM.
In the case of `O=C1CCC(N2Cc3cc(C(=O)C4CCN(Cc5ccccc5)CC4)ccc3C2=O)C(=O)N1` (centres unmarked) [Compound 11, 3-(5-(1-benzylpiperidine-4-carbonyl)-1-ox.oisoindolin-2-yl)piperidine-2,6-dione], the “CRBN binding affinity (% Ctrl @ 5µM)” value at Cereblon (CRBN) protein was “A (0 ≤ '% Ctrl' < 0.1)”.
Regarding `O=C1CCC(N2Cc3cc(C(=O)c4ccccc4)ccc3C2=O)C(=O)N1` (centres unmarked) [Compound 1, 3-(5-benzoyl-1-oxoisoindolin-2-yl)piperidine-2,6-dione], the “CRBN binding affinity (% Ctrl @ 5µM)” value at Cereblon (CRBN) protein is recorded as “C (1 ≤ % Ctrl' < 10)”. Also, in experiment [2], the 50% growth inhibitory concentration (GI50) lay within 100 to 1000 nM.
In the case of `O=C1CCC(N2Cc3cc(C(=O)c4ccc(-c5ccccc5)[nH]4)ccc3C2=O)C(=O)N1` (centres unmarked) [Compound 28, 3-(1-oxo-5-(5-phenyl-1H-pyrrole-2-carbonyl)isoindolin-2-yl)piperidine-2,6-dione], the “CRBN binding affinity (% Ctrl @ 5µM)” value on Cereblon (CRBN) protein is listed as “C (1 ≤ % Ctrl' < 10)”. This molecule also gave a GI50 in experiment [2] of 100 to 1000 nM.
In the case of `O=C1CCC(N2Cc3cc(C(=O)c4cc5ccc(F)cc5[nH]4)ccc3C2=O)C(=O)N1` (centres unmarked) [Compound 19, 3-(5-(6-fluoro-1H-indole-2-carbonyl)-1-oxoisoindolin-2-yl)piperidine-2,6-dione], the 50% growth inhibitory concentration (GI50) in experiment [1] and in experiment [2] was not above 100 nM each time.
Consider `O=C1CCC(N2Cc3cc(C(=O)n4ncc5ccccc54)ccc3C2=O)C(=O)N1` (centres unmarked) [Compound 6, 3-(5-(1H-indazole-1-carbonyl)-1-oxoisoindolin-2-yl)piperidine-2,6-dione], for which, on Cereblon (CRBN) protein, the “CRBN binding affinity (% Ctrl @ 5µM)” value is “A (0 ≤ '% Ctrl' < 0.1)”.
Consider `CN(C)c1ccc(C(=O)c2ccc3c(c2)CN(C2CCC(=O)NC2=O)C3=O)cc1` (centres unmarked) [Compound 46, 3-(5-(4-(dimethylamino)benzoyl)-1-oxoisoindolin-2-yl)piperidine-2,6-dione], for which the 50% growth inhibitory concentration (GI50) in experiment [1] and in experiment [2] was not above 100 nM throughout.
With `O=C1CCC(N2Cc3cc(C(=O)c4cc(-c5ccccc5)cs4)ccc3C2=O)C(=O)N1` (centres unmarked) [Compound 30, 3-(1-oxo-5-(4-phenylthiophene-2-carbonyl)isoindolin-2-yl)piperidine-2,6-dione], the “CRBN binding affinity (% Ctrl @ 5µM)” value at Cereblon (CRBN) protein is on record as “A (0 ≤ '% Ctrl' < 0.1)”. Also, the 50% growth inhibitory concentration (GI50) in experiment [2] lay in the range of 100 to 1000 nM.
Consider `Cn1c(C(=O)c2ccc3c(c2)CN(C2CCC(=O)NC2=O)C3=O)cc2ccccc21` (centres unmarked) [Compound 59, 3-(5-(1-methyl-1H-indole-2-carbonyl)-1-oxoisoindolin-2-yl)piperidine-2,6-dione], for which the results for the GI50 in experiment [1] and in experiment [2] were not above 100 nM and 100 to 1000 nM, respectively.
On to `CC(C)(C)c1ccc(C(=O)c2ccc3c(c2)CN(C2CCC(=O)NC2=O)C3=O)cc1` (centres unmarked) [Compound 63, 3-(5-(4-(tert-butyl)benzoyl)-1-oxoisoindolin-2-yl)piperidine-2,6-dione], for which the GI50 in experiment [1] and in experiment [2] was not above 100 nM throughout.
Consider `O=C1CCC(N2Cc3cc(C(=O)c4ccc(-c5ccccc5)cc4)ccc3C2=O)C(=O)N1` (centres unmarked) [Compound 33, 3-(5-([1,1'-biphenyl]-4-carbonyl)-1-oxoisoindolin-2-yl)piperidine-2,6-dione], for which the GI50 in experiment [1] and in experiment [2] was not above 100 nM in each case.
`O=C1CCC(N2Cc3cc(C(=O)c4ccc(O)cc4)ccc3C2=O)C(=O)N1` (centres unmarked) [Compound 52, 3-(5-(4-hydroxybenzoyl)-1-oxoisoindolin-2-yl)piperidine-2,6-dione]: the GI50 in experiment [1] is not above 100 nM; in experiment [2], 100 to 1000 nM.
Regarding `O=C1CCC(N2Cc3cc(C(=O)c4ccccn4)ccc3C2=O)C(=O)N1` (centres unmarked) [Compound 12, 3-(1-oxo-5-picolinoylisoindelin-2-yi)piperidine-2,6-dione], the “CRBN binding affinity (% Ctrl @ 5µM)” value on Cereblon (CRBN) protein is reported as “A (0 ≤ '% Ctrl' < 0.1)”.
Consider `O=C1CCC(N2Cc3cc(C(=O)c4cc5cc(F)ccc5[nH]4)ccc3C2=O)C(=O)N1` (centres unmarked) [Compound 9, 3-(5-(5-fluoro-1H-indole-2-carbonyl)-1-oxoisoindolin-2-yl)piperidine-2,6-dione], for which the concentration for 50% growth inhibition (GI50) in experiment [1] and in experiment [2] was not above 100 nM throughout.
`O=C1CCC(N2Cc3cc(C(=O)c4cc5ccc(Cl)cc5[nH]4)ccc3C2=O)C(=O)N1` (centres unmarked) [Compound 20, 3-(5-(6-chloro-1H-indole-2-carbonyl)-1-oxoisoindolin-2-yl)piperidine-2,6-dione]: the GI50 in experiment [1] and in experiment [2] was not above 100 nM in each case.
For `O=C1CCC(N2Cc3cc(C(=O)N4Cc5ccccc5C4)ccc3C2=O)C(=O)N1` (centres unmarked) [Compound 36, 3-(5-(isoindoline-2-carbonyl)-1-oxoisoindolin-2-yl)piperidine-2,6-dione], on Cereblon (CRBN) protein, the “CRBN binding affinity (% Ctrl @ 5µM)” value is “A (0 ≤ '% Ctrl' < 0.1)”. In experiment [2], this molecule yielded a GI50 not above 100 nM.
Consider `O=C1CCC(N2Cc3nc(C(=O)c4ccccc4)ccc3C2=O)C(=O)N1` (centres unmarked) [Compound 5, 3-(2-benzoyl-5-oxo-5,7-dihydro-6H-pyrrolo[3.4-b]pyridin-6-yl)piperidine-2,6-dione], for which the “CRBN binding affinity (% Ctrl @ 5µM)” value on Cereblon (CRBN) protein is reported as “C (1 ≤ % Ctrl' < 10)”.
As to `O=C1CCC(N2Cc3cc(C(=O)c4cccc(Nc5ccccc5)c4)ccc3C2=O)C(=O)N1` (centres unmarked) [Compound 16, 3-(1-oxo-5-(3-(phenylamino)benzoyl)isoindolin-2-yl)piperidine-2,6-dione], the “CRBN binding affinity (% Ctrl @ 5µM)” value on Cereblon (CRBN) protein is “A (0 ≤ '% Ctrl' < 0.1)”. The concentration for 50% growth inhibition (GI50) in experiment [2] lay within 1000 to 10000 nM.
For `O=C1CCC(N2Cc3cc(C(=O)c4cccc(-c5ccccc5)c4)ccc3C2=O)C(=O)N1` (centres unmarked) [Compound 26, 3-(5-([1,1'-biphenyl]-3-carbonyl)-1-oxoisoindolin-2-yl)piperidine-2,6-dione], in that order: “A (0 ≤ '% Ctrl' < 0.1)” and 1000 to 10000 nM.
With `O=C1CCC(N2Cc3cc(C(=O)N4CCCC4)ccc3C2=O)C(=O)N1` (centres unmarked) [Compound 7, 3-(1-oxo-5-(pyrrolidine-1-carbonyl)isoindolin-2-yl)piperidine-2,6-dione], the “CRBN binding affinity (% Ctrl @ 5µM)” value on Cereblon (CRBN) protein is “A (0 ≤ '% Ctrl' < 0.1)”.
